ChEMBL document CHEMBL1667764, “Characterization of the baicalein-bovine serum albumin complex without or with Cu2+ or Fe3+ by spectroscopic approaches” (Eur J Med Chem, 2011)

Key:
Details in all cases: cattle
Albumin [1] = biological target: T1, Albumin (Bos taurus, UniProt P02769); assay: Binding affinity to bovine serum albumin at pH 7.4 at 310K in presence of Fe3+ by fluorescence quenching logarithmic plot
Albumin [2] = biological target: T1, Albumin; assay: Binding affinity to bovine serum albumin using 6x10'-6 Lmol'-1 at pH 7.4 at 310K by Stern-Volmer plot
Albumin [3] = biological target: T1, Albumin; assay: Binding affinity to bovine serum albumin at pH 7.4 at 310K by fluorescence quenching
Albumin [4] = biological target: T1, Albumin; assay: Binding affinity to bovine serum albumin at pH 7.4 at 310K in presence of Fe3+ by fluorescence quenching
Albumin [5] = biological target: T1, Albumin; assay: Binding affinity to bovine serum albumin using 3x10'-6 Lmol'-1 at pH 7.4 at 310K by Stern-Volmer plot
Albumin [6] = biological target: T1, Albumin; assay: Binding affinity to bovine serum albumin at pH 7.4 at 310K in presence of Cu2+ by fluorescence quenching logarithmic plot
Albumin [7] = biological target: T1, Albumin; assay: Binding affinity to bovine serum albumin at pH 7.4 at 310K by fluorescence quenching logarithmic plot
Albumin [8] = biological target: T1, Albumin; assay: Binding affinity to bovine serum albumin at pH 7.4 at 310K in presence of Cu2+ by fluorescence quenching
Albumin [9] = biological target: T1, Albumin; assay: Binding affinity to bovine serum albumin using 4.5x10'-6 Lmol'-1 at pH 7.4 at 310K by Stern-Volmer plot

T1 sequence (P02769 whole entry): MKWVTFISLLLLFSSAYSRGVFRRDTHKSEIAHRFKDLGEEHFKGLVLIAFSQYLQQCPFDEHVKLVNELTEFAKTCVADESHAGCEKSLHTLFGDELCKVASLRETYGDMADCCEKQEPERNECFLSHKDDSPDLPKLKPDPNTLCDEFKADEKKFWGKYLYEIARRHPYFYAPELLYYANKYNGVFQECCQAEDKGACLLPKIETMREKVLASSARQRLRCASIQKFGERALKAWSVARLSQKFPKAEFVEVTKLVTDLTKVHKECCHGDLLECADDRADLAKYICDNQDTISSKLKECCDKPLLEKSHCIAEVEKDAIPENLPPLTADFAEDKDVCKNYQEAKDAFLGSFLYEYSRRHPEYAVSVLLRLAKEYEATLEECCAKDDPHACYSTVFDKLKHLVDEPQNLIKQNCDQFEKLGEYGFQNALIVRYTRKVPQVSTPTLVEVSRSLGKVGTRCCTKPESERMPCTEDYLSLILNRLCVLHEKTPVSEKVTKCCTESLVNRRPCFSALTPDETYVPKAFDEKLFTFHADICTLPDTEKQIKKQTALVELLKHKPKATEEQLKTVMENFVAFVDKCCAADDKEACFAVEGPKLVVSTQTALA

O=c1cc(-c2ccccc2)oc2cc(O)c(O)c(O)c12 [BAICALEIN]
K (Albumin [1]): 4.85 ×10⁴ L/mol
KSV (Albumin [2]): 1.51 ×10⁵ L/mol
Kq (Albumin [2]): 3.02 ×10¹³ L/mol/s
KSV (Albumin [3]): 1.96 ×10⁵ L/mol
Kq (Albumin [3]): 3.92 ×10¹³ L/mol/s
KSV (Albumin [4]): 1.6 ×10⁵ L/mol
Kq (Albumin [4]): 3.2 ×10¹³ L/mol/s
KSV (Albumin [5]): 2.11 ×10⁵ L/mol
Kq (Albumin [5]): 4.22 ×10¹³ L/mol/s
K (Albumin [6]): 1.88 ×10⁵ L/mol
K (Albumin [7]): 2.7 ×10⁵ L/mol
KSV (Albumin [8]): 1.76 ×10⁵ L/mol
Kq (Albumin [8]): 3.52 ×10¹³ L/mol/s
KSV (Albumin [9]): 1.96 ×10⁵ L/mol
Kq (Albumin [9]): 3.92 ×10¹³ L/mol/s
